This note sets out measurements from ChEMBL document CHEMBL1156471, “Targeting host cell furin proprotein convertases as a therapeutic strategy against bacterial toxins and viral pathogens” (J Biol Chem, 2007).

In data set [1] the test system is Bacillus anthracis. The data set is described as follows: Protection against Bacillus anthracis Sterne spores infected A/J mouse assessed as survival at 25 mg/kg, sc administered daily after 4 days post infection. It counts as functional. The note with it: route subcutaneous.
Data set [2] concerns the target Proprotein convertase subtilisin/kexin type 5 (Homo sapiens, UniProt Q92824).
In data set [3] the target is T1, Proprotein convertase subtilisin/kexin type 4 (Homo sapiens, UniProt Q6UW60).
T1 sequence (Q6UW60 whole entry): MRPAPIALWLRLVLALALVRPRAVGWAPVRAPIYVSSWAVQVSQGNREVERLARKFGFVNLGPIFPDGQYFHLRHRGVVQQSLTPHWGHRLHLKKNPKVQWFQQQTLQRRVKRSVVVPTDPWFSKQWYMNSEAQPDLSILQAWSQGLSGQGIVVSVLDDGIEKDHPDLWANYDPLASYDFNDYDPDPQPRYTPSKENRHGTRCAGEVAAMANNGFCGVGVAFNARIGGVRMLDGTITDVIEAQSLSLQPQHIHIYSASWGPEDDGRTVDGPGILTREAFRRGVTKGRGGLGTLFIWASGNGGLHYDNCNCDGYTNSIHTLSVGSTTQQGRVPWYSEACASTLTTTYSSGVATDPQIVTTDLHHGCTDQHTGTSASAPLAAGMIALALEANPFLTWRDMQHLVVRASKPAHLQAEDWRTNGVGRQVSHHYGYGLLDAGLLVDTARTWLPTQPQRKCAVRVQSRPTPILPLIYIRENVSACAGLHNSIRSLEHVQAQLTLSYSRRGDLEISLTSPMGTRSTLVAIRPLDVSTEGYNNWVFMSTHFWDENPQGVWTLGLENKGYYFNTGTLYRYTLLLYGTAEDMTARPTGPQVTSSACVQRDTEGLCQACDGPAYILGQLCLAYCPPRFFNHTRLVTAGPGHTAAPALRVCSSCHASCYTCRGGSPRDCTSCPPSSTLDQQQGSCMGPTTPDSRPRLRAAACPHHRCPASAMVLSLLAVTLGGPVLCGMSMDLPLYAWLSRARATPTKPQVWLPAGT

For data set [4], the target named is T2, Proprotein convertase subtilisin/kexin type 6 (Rattus norvegicus, UniProt Q63415).
T2 sequence (Q63415 whole entry): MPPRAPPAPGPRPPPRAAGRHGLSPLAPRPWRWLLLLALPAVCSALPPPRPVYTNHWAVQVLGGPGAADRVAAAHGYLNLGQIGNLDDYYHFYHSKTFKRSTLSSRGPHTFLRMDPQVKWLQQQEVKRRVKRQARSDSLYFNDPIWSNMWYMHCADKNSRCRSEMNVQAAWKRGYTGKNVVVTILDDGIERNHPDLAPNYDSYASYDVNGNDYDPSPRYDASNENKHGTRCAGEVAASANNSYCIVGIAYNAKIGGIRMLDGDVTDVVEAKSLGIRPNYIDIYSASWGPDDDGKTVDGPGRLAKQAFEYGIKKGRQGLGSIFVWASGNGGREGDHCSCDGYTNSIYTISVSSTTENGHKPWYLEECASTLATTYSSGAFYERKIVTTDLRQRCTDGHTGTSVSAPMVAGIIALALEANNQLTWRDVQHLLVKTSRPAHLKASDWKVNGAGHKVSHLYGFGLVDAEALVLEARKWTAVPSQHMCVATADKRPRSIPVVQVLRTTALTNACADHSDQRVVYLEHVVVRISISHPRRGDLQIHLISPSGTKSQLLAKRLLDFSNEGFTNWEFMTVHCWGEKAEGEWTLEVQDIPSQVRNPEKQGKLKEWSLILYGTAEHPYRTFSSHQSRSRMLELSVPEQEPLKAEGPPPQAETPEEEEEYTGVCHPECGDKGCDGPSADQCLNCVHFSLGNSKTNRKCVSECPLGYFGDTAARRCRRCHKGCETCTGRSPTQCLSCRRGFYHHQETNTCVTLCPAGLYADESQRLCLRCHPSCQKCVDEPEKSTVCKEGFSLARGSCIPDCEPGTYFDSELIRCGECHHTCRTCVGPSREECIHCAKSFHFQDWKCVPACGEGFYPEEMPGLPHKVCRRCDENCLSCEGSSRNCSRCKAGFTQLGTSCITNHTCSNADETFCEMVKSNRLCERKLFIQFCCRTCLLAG

The target of data set [5] is T3, Furin (Homo sapiens, UniProt P09958).
T3 sequence (P09958 whole entry): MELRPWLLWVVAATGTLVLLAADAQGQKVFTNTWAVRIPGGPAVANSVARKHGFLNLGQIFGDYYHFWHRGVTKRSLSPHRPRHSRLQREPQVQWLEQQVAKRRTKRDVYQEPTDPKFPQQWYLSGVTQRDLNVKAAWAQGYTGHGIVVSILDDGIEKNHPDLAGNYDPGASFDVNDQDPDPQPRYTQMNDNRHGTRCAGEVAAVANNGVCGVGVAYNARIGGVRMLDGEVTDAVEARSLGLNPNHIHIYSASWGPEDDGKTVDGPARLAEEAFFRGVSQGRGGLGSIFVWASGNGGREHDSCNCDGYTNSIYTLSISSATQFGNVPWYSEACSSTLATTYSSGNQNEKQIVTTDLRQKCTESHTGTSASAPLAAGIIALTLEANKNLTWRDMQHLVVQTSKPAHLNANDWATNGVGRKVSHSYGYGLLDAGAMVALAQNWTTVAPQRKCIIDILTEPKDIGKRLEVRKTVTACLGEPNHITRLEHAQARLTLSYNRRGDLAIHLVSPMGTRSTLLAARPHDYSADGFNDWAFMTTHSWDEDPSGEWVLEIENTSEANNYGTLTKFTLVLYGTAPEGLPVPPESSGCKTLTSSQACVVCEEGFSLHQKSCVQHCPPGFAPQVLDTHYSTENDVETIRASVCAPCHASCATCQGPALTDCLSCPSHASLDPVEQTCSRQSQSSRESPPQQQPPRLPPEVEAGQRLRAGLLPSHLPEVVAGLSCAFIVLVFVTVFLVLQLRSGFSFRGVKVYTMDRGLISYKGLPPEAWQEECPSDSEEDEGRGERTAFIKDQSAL
The target in data set [6] is T4, Proprotein convertase subtilisin/kexin type 7 (Homo sapiens, UniProt Q16549).
T4 sequence (Q16549 whole entry): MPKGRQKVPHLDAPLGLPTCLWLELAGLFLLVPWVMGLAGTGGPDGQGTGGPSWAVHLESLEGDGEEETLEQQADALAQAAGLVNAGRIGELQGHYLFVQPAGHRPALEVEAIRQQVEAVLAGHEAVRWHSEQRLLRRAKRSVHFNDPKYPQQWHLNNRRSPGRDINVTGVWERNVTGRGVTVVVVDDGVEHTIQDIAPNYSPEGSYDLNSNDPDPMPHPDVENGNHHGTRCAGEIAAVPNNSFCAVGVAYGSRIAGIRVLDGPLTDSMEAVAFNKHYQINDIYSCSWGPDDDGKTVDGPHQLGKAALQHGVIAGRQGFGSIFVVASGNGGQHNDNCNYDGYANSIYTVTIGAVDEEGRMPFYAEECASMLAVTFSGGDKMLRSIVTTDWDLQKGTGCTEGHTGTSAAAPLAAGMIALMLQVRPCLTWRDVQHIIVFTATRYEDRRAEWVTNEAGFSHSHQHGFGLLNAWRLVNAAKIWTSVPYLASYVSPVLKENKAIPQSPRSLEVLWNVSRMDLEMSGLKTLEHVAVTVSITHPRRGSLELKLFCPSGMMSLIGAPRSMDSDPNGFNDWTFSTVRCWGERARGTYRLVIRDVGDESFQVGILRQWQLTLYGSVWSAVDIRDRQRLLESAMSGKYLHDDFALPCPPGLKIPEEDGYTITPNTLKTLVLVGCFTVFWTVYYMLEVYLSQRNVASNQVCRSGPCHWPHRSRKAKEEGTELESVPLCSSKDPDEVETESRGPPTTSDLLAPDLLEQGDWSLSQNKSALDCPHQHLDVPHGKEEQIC

Data set [7] deals with U-251. The data set is described as follows: Protection against anthrax PA63-lethal toxin complex-induced cytotoxicity in human U251 cells at 20 uM at 400 ng/ml by MTT test. The format is cell-based. For orientation: Tetrazolium assays rely on reduction of a dye to a coloured formazan, in cell work by metabolically active cells.
For data set [8], the system named is U-251. The data set is described as follows: Inhibition of proprotein convertase-mediated anthrax protective antigen-83 processing in human U251 cells at 20 uM by Western blot. It counts as cell-based. To be noted: Bacillus anthracis.
Data set [9] concerns Bacillus anthracis. The data set can be described thus: Protection against Bacillus anthracis Sterne spores infected A/J mouse assessed as survival at 12.5 mg/kg, ip administered once daily for 6 days. The format is functional. The note with it: route intraperitoneal.
The test system of data set [10] is Bacillus anthracis. The data set can be described thus: Protection against Bacillus anthracis Sterne spores infected A/J mouse at 12.5 mg/kg, ip administered once daily for 6 days. The format is functional. The note with it: route intraperitoneal.
The next data set relates to RAW264.7. The data set is described as follows: Cytotoxicity against mouse RAW264.7 cells =< 0.5 mM after 4 hrs by MTT assay. To be noted: raw264.7, 4 h. The format is cell-based.
The target in data set [11] is T3, Furin. The data set is described as follows: Inhibition of furin-mediated Pseudomonas exotoxin A proteolysis by peptide cleavage reaction.
Another data set deals with Mus musculus. The data set can be described thus: Protection against Pseudomonas exotoxin A-induced toxicity in C57BL/6 mouse assessed as survival at 12.5 mg/kg, ip once daily administered 1 hr prior to toxin challenge. The format is functional. The note with it: C57BL/6, ip, route intraperitoneal.
The test system of data set [12] is U-251. The data set is described as follows: Inhibition of proprotein convertase-dependent delivery of PA63-lethal toxin complex into cytosol in human U251 cells at 20 uM. The format is cell-based. The note with it: Bacillus anthracis.

Activity calls are given as the source filed them. The rule behind the calls is not given here. Non-standard residues stand in square brackets, D forms with d. Residues, ends and D or L forms follow the SMILES beside them. βAla = NCCC(=O)O; Sar = CNCC(=O)O

Chain of Proprotein convertase subtilisin/kexin type 5 (Q92824 whole entry): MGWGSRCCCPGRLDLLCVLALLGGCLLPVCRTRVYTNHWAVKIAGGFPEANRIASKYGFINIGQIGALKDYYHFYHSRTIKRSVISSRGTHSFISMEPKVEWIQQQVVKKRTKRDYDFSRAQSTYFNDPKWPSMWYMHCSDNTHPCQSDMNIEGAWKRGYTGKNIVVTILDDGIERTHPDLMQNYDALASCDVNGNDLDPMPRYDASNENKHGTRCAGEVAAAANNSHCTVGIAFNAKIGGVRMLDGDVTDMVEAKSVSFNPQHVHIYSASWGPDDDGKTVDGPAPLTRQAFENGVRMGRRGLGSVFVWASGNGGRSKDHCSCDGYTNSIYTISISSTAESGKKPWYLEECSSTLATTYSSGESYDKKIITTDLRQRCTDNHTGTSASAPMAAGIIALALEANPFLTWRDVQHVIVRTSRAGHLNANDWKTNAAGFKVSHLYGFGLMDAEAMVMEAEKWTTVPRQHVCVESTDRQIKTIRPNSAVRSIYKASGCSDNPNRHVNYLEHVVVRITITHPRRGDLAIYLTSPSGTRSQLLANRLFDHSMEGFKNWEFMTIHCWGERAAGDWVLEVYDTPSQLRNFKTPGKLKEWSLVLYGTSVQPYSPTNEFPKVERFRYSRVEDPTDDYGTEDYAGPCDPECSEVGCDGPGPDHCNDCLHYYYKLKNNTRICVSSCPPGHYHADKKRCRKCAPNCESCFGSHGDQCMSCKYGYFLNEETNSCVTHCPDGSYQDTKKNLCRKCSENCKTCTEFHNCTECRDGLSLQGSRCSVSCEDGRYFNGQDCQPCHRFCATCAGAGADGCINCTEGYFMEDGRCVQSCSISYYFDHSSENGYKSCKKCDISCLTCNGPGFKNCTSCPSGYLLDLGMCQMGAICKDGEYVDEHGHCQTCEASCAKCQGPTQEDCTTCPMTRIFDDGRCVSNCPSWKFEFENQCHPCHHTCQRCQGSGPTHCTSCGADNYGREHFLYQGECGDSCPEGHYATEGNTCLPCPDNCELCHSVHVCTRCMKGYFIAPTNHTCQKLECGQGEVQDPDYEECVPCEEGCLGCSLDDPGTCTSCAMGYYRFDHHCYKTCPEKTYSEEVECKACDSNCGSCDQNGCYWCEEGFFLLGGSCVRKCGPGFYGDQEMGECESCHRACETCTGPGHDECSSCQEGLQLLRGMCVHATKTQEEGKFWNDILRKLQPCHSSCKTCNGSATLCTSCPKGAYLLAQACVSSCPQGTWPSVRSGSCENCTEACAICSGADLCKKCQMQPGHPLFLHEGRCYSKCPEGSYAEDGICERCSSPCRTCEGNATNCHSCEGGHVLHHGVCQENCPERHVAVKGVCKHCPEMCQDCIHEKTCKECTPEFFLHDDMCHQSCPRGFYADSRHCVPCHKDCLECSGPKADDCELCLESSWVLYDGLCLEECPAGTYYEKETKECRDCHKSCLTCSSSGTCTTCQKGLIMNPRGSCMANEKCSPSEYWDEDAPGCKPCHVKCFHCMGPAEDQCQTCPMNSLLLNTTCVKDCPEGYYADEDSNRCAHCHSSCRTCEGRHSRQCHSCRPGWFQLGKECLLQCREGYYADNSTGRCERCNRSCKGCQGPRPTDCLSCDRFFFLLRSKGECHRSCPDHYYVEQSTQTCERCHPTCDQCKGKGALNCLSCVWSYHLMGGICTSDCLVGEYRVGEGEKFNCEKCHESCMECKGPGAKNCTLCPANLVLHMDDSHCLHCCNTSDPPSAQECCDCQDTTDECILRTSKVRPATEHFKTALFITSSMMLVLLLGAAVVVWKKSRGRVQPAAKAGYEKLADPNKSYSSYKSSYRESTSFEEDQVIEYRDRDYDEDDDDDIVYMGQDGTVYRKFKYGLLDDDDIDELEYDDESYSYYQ

Consider `O=C(O)c1cn(C2CC2)c2cc(N3CCNCC3)c(F)cc2c1=O` [CIPROFLOXACIN], for which the Survival with Bacillus anthracis [1] was 6 days.

In general, Ki refers to a measure of affinity in units of concentration, obtained from inhibition or displacement. For the compound H-TPQRARRRKKRW-OH, the Ki in data set [2] was determined as 433 nM; in data set [3], 952 nM; in data set [4], 192 nM; at Furin [5], 34 nM; in data set [6], 172 nM.

As to `CNC(=O)[C@H](Cc1c[nH]c2ccccc12)NC(=O)[C@@H](CC(=O)NO)CC(C)C`, in the data set on U-251 [7], the result was Active.

For H-TPRARRRKKRY-OH, in the data set on U-251 [8], the outcome was Active.

For H-TPRARRRKKRF-OH, the result in the data set with U-251 [8] was Active. This compound returned a Ki at Furin [5] of 38 nM.

Consider H-TPRARRRKKRW-OH, for which the result in the data set on U-251 [8] was Active.

`C[C@H](NC(=O)[C@H](CCCNC(=N)N)NC(=O)[C@@H]1CCCN1C(=O)[C@@H](NC(=O)CCN)[C@@H](C)O)C(=O)N[C@@H](CCCNC(=N)N)C(=O)N[C@@H](CCCNC(=N)N)C(=O)N[C@@H](CCCNC(=N)N)C(=O)N[C@@H](CCCCN)C(=O)N[C@@H](CCCCN)C(=O)N[C@@H](CCCNC(=N)N)C(=O)N[C@H](C(N)=O)[C@@H](C)O` (H-[βAla]TPRARRRKKRT-NH2): in the data set with Bacillus anthracis [9], the Survival was found to be 6.63 days. The compound also returned an Activity in the data set with Bacillus anthracis [10] of 40%.

Regarding H-TPRARRRKKRT-OH, the outcome with U-251 [8] was Active. For the same compound, affinity on Furin [5] was put at a Ki of 23 nM.

In the case of H-TPRARRRKKRT-NH2, the Ki in [2] was determined as 232 nM; in data set [3], 441 nM; in data set [4] it was 162 nM; in [6], 135 nM. Moreover, the result in the data set with U-251 [7], at Furin [11], in the data set on U-251 [8] and in the data set with U-251 [12] was Active. Moreover, in the data set with RAW264.7, the Activity entry is given as “Non-toxic”. Besides, the survival at 12.5 mg/kg in the data set with Mus musculus turned out to be 60%.

Regarding H-TPRARRRKKRI-NH2, the Ki in [2] amounted to 492 nM; in data set [3] it was 562 nM; in data set [4] it was 267 nM; at Furin [5] it was 30 nM; in [6], 135 nM.

In the case of H-TPQRARRRKKRT-OH, the Ki in [2] is 188 nM; in data set [3], 515 nM; in [4] it was 296 nM; on Furin [5], 33 nM; in data set [6], 206 nM.

With H-TPRARRRKKRF-NH2, the outcome in the data set with U-251 [8] was Active.

As to H-TPRARRRKKRW-NH2, the outcome with U-251 [8] was Active. The compound further displayed a Ki on Furin [5] of 59 nM.

Take H-TPQRARRRKKRF-OH: the Ki in [2] turned out to be 806 nM; in data set [3], 772 nM; in data set [4], 602 nM; on Furin [5], 38 nM; in [6] it was 1130 nM.

H-TPQRARRRKKRY-OH: the Ki in [2] was found to be 649 nM; in data set [3], 624 nM; in [4] it was 1020 nM; at Furin [5], 47 nM; in data set [6], 1220 nM.

In the case of `C[C@H](NC(=O)[C@@H]1CCCN1C(=O)[C@@H](N)[C@@H](C)O)C(=O)N[C@@H](CCC(=O)O)C(=O)N[C@@H](CCCNC(=N)N)C(=O)N[C@@H](CCCNC(=N)N)C(=O)N[C@@H](CCCNC(=N)N)C(=O)N[C@@H](CCCCN)C(=O)N[C@@H](CCCCN)C(=O)N[C@@H](CCCNC(=N)N)C(=O)N(C)CC(=O)O` (H-TPAERRRKKR[Sar]-OH), the Ki on Furin [5] was over 100 nM.

For H-TPRARRRKKRY-NH2, the outcome with U-251 [8] was Active. Besides, the Ki on Furin [5] is 53 nM.

Compound H-TPRERRRAARV-OH yielded a Ki at Furin [5] of over 100 nM.

At Furin [5], H-TPRAARRKKR-OH displayed an inhibitory constant (Ki) of over 100 nM.

Compound `C[C@H](NC(=O)[C@H](CCCN=C(N)N)NC(=O)[C@H](CCC(N)=O)NC(=O)[C@@H]1CCCN1C(=O)[C@@H](N)[C@@H](C)O)C(=O)N[C@@H](CCCN=C(N)N)C(=O)N[C@@H](CCCN=C(N)N)C(=O)N[C@@H](CCCN=C(N)N)C(=O)N[C@@H](CCCCN)C(=O)N[C@@H](CCCCN)C(=O)N[C@@H](CCCN=C(N)N)C(=O)NCCC(=O)O` (H-TPQRARRRKKR[βAla]-OH) registered a Ki on Furin [5] of over 100 nM.

On to H-TPQRARRRKKRM-OH, for which the Ki at Furin [5] was found to be 58 nM.

In turn, H-GGGGGGTPQRARRRKKRW-OH had a Ki at Furin [5] of 88 nM.

With H-TPAARRRKKR-OH, the Ki on Furin [5] is over 100 nM.
